{"source": "patent US20140127235A1", "about": "“TARGETING HK alpha FOR CONTROLLING BLOOD PRESSURE AND REGULATING ELECTROLYTE BALANCE” (UNIVERSITY OF FLORIDA RESEARCH FOUNDATION, INC., priority 2011, published 2014)", "assay_type_in_all_cases": "in vivo, mouse", "key": {"[1]": {"experiment": "Time course of the physiological effect of DOCP treatment in wild type mice (body weight, blood electrolytes)", "conditions": "for Change in BW (%) / Blood [Cl−] / Blood [HCO3−] / Blood [K+] / Blood [Na+]: wild type mice; for Change in BW (%): DOCP 1.7 mg i.m.", "description": "A primary goal of the study was to characterize the temporal changes in body weight, Na^+, K^+, and acid-base homeostasis during chronic mineralocorticoid excess. Body weight and blood electrolytes were measured over an eight day time course in untreated (control) mice and those treated with DOCP (1.7 mg) (Table 1).\n(§1) Mice were fed normal lab chow, given free access to water, and given an i.m. injection of 1.7 mg DOCP (Percorten V, Novartis Pharmaceuticals). For perfusion and expression studies, mice were sacrificed with Na^+ pentobarbital (i.p. 120 mg/kg) followed by cervical dislocation. For time course experiments, another group of animals were anesthetized with 3-4% isoflurane and aortic blood was collected into a heparinized syringe for immediate analysis of electrolytes and blood gases (Nova pHOx Plus analyzer, Nova Biomedical). For high K^+ diet studies, mice were given a normal, powdered diet (TD99131, Teklad) supplemented with KCl to equal 5% K^+ which was then made as a gel. Half of the mice were treated with DOCP. Blood and tissues were collected as in the time course experiments. For urinalysis experiments, mice were housed in metabolic cages for thirteen days and fed a normal gel diet with free access to a water bottle. On day five, mice were treated with DOCP as above. Urine and feces were collected daily. Urine electrolytes were measured on a clinical analyzer (Nova 16 analyzer, Nova Biomedical) and fecal electrolytes were measured on a digital flame photometer (Model 2655-00, Cole-Parmer)."}, "[2]": {"experiment": "Effect of high K+ (5%) diet on physiological response of wild type mice to DOCP treatment", "conditions": "eight days after DOCP", "description": "Deficits in K^+ homeostasis have long been known to stimulate H^+,K^+-ATPase activity and HKα subunit expression. […] For this experiment, mice were fed a high K^+ diet and then left untreated (control) or given DOCP treatment. Body weight and blood electrolytes were measured eight days after treatment and kidneys were collected for analysis of HKα, and HKα2 mRNA expression by real time PCR.\nas §1"}, "HKα2 mRNA": {"test_system": "HKα2 mRNA", "experiment": "Real time PCR of renal HKα2 mRNA expression in DOCP-treated mice", "from_the_text": "(§2) The principal mechanism of mineralocorticoid action is through modulation of target gene transcription.^15 Therefore, the next experiments evaluated the effect of DOCP on renal HKα1 and HKα2 mRNA expression. Real time quantitative PCR was used to investigate changes in steady state mRNA levels of H^+,K^+-ATPase α subunits, HKα1 and HKα2, in cortex, outer medulla, and inner medulla of control and DOCP-treated mice.\nDeficits in K^+ homeostasis have long been known to stimulate H^+,K^+-ATPase activity and HKα subunit expression. Therefore, the next experiments investigated whether the decreases in blood [K^+] observed in DOCP-treated mice were responsible for the stimulation of HKα2 mRNA expression. For this experiment, mice were fed a high K^+ diet and then left untreated (control) or given DOCP treatment. Body weight and blood electrolytes were measured eight days after treatment and kidneys were collected for analysis of HKα, and HKα2 mRNA expression by real time PCR. A high K^+ diet abrogated the effect of DOCP on body weight gain, blood [K^+], [Cl^−], and [HCO3^−] in mice (Table 3). Similarly, the stimulation of HKα, or HKα2 mRNA expression with DOCP was absent in mice fed a high K^+ diet (FIGS. 3C and 3D).\n(§3) RNA was recovered from cortex, medulla, and inner medulla with TRIzol reagent (Invitrogen). RNA was treated with DNase 1 (Ambion DNA Free) and converted to cDNA using SuperScript III (Invitrogen). For real time quantitative PCR, 20 ng cDNA was used to quantify mRNA expression with TaqMan Gene Expression (Applied Biosystems) primer/probe sets for HKα1 (Atp4a, Mm00444423_m1), HKα2 (Atp12a, Mm0131809_m1), and β-actin (Actb, Mm00607939_s1). Cycle threshold (Ct) values were normalized to β-actin, and relative expression (control set to 100%) was calculated by the ΔΔCt method.^28"}, "[3]": {"experiment": "DOCP treatment of wild type, HKα1−/− and HKα1,2−/− mice: body weight, blood electrolytes, urinary and fecal electrolyte excretion", "from_the_text": "In a separate study, the effect of DOCP treatment of body weight change, blood electrolytes, and urinary and fecal electrolyte excretion was examined in wild type, HKα1^−/−, and HKα1,2^−/− mice on a normal diet.\nIn the context of whole animal physiology, it is important to examine the overall electrolyte balance as the […] of urinary and fecal excretion subtracted from the intake of that electrolyte.\nas §1"}, "HKα1 mRNA": {"test_system": "HKα1 mRNA", "experiment": "Real time PCR of renal HKα1 mRNA expression in DOCP-treated mice", "conditions": "cortex, outer medulla and inner medulla, eight days after DOCP, normal diet", "from_the_text": "as §2, §3"}}, "data": [{"smiles": "CC(C)(C)C(=O)OCC(=O)[C@H]1CC[C@H]2[C@@H]3CCC4=CC(=O)CC[C@]4(C)[C@H]3CC[C@]12C", "note": "[DOCP, desoxycorticosterone pivalate]", "values": [{"measurement": "Change in BW (%)", "setting": "[1]; Day 2", "value": "0.06 ± 1.2 (7) %"}, {"measurement": "Change in BW (%)", "setting": "[1]; Day 4", "value": "2.0 ± 1.2 (7) %"}, {"measurement": "Change in BW (%)", "setting": "[1]; Day 6", "value": "5.4 ± 1.4 (7)**^,† %"}, {"measurement": "Change in BW (%)", "setting": "[1]; Day 8", "value": "6.1 ± 1.2 (7)**^,† %"}, {"measurement": "Blood [Cl−]", "setting": "[1]; Day 2 of DOCP", "value": "120 ± 1.8 (3) mM"}, {"measurement": "Blood [HCO3−]", "setting": "[1]; Day 2 of DOCP", "value": "19 ± 0.87 (4) mM"}, {"measurement": "Blood [K+]", "setting": "[1]; Day 2 of DOCP", "value": "3.5 ± 0.12 (4) mM"}, {"measurement": "Blood [Na+]", "setting": "[1]; Day 2 of DOCP", "value": "150 ± 1.3 (3) mM"}, {"measurement": "Blood [Cl−]", "setting": "[1]; Day 4 of DOCP", "value": "116 ± 0.95 (4) mM"}, {"measurement": "Blood [HCO3−]", "setting": "[1]; Day 4 of DOCP", "value": "20 ± 1.2 (4) mM"}, {"measurement": "Blood [K+]", "setting": "[1]; Day 4 of DOCP", "value": "3.5 ± 0.17 (4) mM"}, {"measurement": "Blood [Na+]", "setting": "[1]; Day 4 of DOCP", "value": "153 ± 1.8 (4) mM"}, {"measurement": "Blood [Cl−]", "setting": "[1]; Day 6 of DOCP", "value": "117 ± 0.35 (3) mM"}, {"measurement": "Blood [HCO3−]", "setting": "[1]; Day 6 of DOCP", "value": "20 ± 0.53 (3) mM"}, {"measurement": "Blood [K+]", "setting": "[1]; Day 6 of DOCP", "value": "2.9 ± 0.21 (3) mM"}, {"measurement": "Blood [Na+]", "setting": "[1]; Day 6 of DOCP", "value": "153 ± 0.80 (3) mM"}, {"measurement": "Blood [Cl−]", "setting": "[1]; Day 8 of DOCP", "value": "111 ± 0.82 (3)*^,**^,†,‡ mM"}, {"measurement": "Blood [HCO3−]", "setting": "[1]; Day 8 of DOCP", "value": "23 ± 2.0 (3) mM"}, {"measurement": "Blood [K+]", "setting": "[1]; Day 8 of DOCP", "value": "2.8 ± 0.07 (3)*^,† mM"}, {"measurement": "Blood [Na+]", "setting": "[1]; Day 8 of DOCP", "value": "150 ± 0.41 (3) mM"}, {"measurement": "decrease in blood [Cl−]", "setting": "[1]; wild-type mice, eight days of DOCP treatment", "value": "approximately 7 mM"}, {"measurement": "Blood [Cl−]", "setting": "[2]", "value": "121 ± 1.30", "unit": "mM"}, {"measurement": "Blood [HCO3−]", "setting": "[2]", "value": "18.2 ± 1.01", "unit": "mM"}, {"measurement": "Blood [K+]", "setting": "[2]", "value": "4.30 ± 0.18", "unit": "mM"}, {"measurement": "Blood [Na+]", "setting": "[2]", "value": "151 ± 0.88", "unit": "mM"}, {"measurement": "Body weight change", "setting": "[2]", "value": "-0.17 ± 0.27", "unit": "g"}, {"measurement": "HKα2 mRNA expression", "setting": "HKα2 mRNA; cortex, eight days after DOCP, normal diet", "value": "did not affect"}, {"measurement": "HKα2 mRNA levels, increase", "setting": "HKα2 mRNA; inner medulla, eight days after DOCP, normal diet", "value": "as much as five-fold"}, {"measurement": "stimulation of HKα1 or HKα2 mRNA expression with DOCP", "setting": "HKα2 mRNA; mice fed a high K+ diet", "value": "absent"}, {"measurement": "HKα2 mRNA levels, increase", "setting": "HKα2 mRNA; outer medulla, eight days after DOCP, normal diet", "value": "more than two-fold"}, {"measurement": "effect of DOCP to decrease blood [Cl−] and increase blood [HCO3−]", "setting": "[3]; HKα1,2−/− mice, day eight", "value": "eliminated"}, {"measurement": "K+ retention, less than wild type mice with DOCP treatment", "setting": "[3]; HKα1,2−/− mice, day eight, overall balance", "value": "~40", "unit": "%"}, {"measurement": "Overall Na+ retention versus wild type or HKα1−/− mice", "setting": "[3]; HKα1,2−/− mice, eighth day of DOCP treatment", "value": "significantly less"}, {"measurement": "increase of fecal K+ loss with DOCP treatment", "setting": "[3]; HKα1−/− and HKα1,2−/− mice, versus control period", "value": "~50", "unit": "%"}, {"measurement": "Urine volume by the end of DOCP treatment", "setting": "[3]; HKα1−/− mice", "value": "considerably decreased"}, {"measurement": "DOCP-induced body weight gain relative to wild type", "setting": "[3]; HKα1−/− mice, day eight, normal diet", "value": "augmented nearly two-fold"}, {"measurement": "dry stool weight, more than wild type or HKα1,2−/− mice when treated with DOCP", "setting": "[3]; HKα1−/− mice, pair fed", "value": 50, "unit": "%"}, {"measurement": "Urine volume by the end of DOCP treatment", "setting": "[3]; wild type and HKα1,2−/− mice", "value": "doubled"}, {"measurement": "overall Na+ balance with DOCP treatment", "setting": "[3]; wild type mice", "value": "increased"}, {"measurement": "HKα1 mRNA expression compared to control", "setting": "HKα1 mRNA", "value": "not significantly altered"}]}]}
